Assay results taken from ChEMBL document CHEMBL2046376, “Synthesis and antimicrobial activity of amide derivatives of polyether antibiotic-salinomycin” (2012).
≈ marks a conversion by molar mass, not a printed value.

Assays:
Type in all cases: functional
Staphylococcus aureus [1] = experiment: Antibacterial activity against hospital-acquired methicillin-sensitive Staphylococcus aureus 448/11 after 18 hrs by twofold serial agar dilution technique; details: 448/11, 18 h
Staphylococcus aureus [2] = experiment: Antibacterial activity against hospital-acquired methicillin-sensitive Staphylococcus aureus 445/11 after 18 hrs by twofold serial agar dilution technique; details: 445/11, 18 h
Staphylococcus aureus [3] = experiment: Antibacterial activity against hospital-acquired methicillin-resistant Staphylococcus aureus 394/10 after 18 hrs by twofold serial agar dilution technique; details: 394/10, 18 h
Staphylococcus aureus [4] = experiment: Antibacterial activity against hospital-acquired methicillin-resistant Staphylococcus aureus 451/11 after 18 hrs by twofold serial agar dilution technique; details: 451/11, 18 h
Staphylococcus aureus [5] = experiment: Antibacterial activity against hospital-acquired methicillin-resistant Staphylococcus aureus 481/11 after 18 hrs by twofold serial agar dilution technique; details: 481/11, 18 h
Staphylococcus aureus [6] = experiment: Antibacterial activity against hospital-acquired methicillin-resistant Staphylococcus aureus 399/10 after 18 hrs by twofold serial agar dilution technique; details: 399/10, 18 h
Staphylococcus aureus [7] = experiment: Antibacterial activity against hospital-acquired methicillin-resistant Staphylococcus aureus 450/11 after 18 hrs by twofold serial agar dilution technique; details: 450/11, 18 h
Staphylococcus aureus [8] = experiment: Antibacterial activity against hospital-acquired methicillin-sensitive Staphylococcus aureus 447/11 after 18 hrs by twofold serial agar dilution technique; details: 447/11, 18 h
Staphylococcus aureus [9] = experiment: Antibacterial activity against hospital-acquired methicillin-resistant Staphylococcus aureus 400/10 after 18 hrs by twofold serial agar dilution technique; details: 400/10, 18 h
Staphylococcus aureus [10] = experiment: Antibacterial activity against hospital-acquired methicillin-resistant Staphylococcus aureus 401/10 after 18 hrs by twofold serial agar dilution technique; details: 401/10, 18 h
Staphylococcus aureus [11] = experiment: Antibacterial activity against hospital-acquired methicillin-resistant Staphylococcus aureus 482/11 after 18 hrs by twofold serial agar dilution technique; details: 482/11, 18 h
Staphylococcus aureus [12] = experiment: Antibacterial activity against hospital-acquired methicillin-sensitive Staphylococcus aureus 444/11 after 18 hrs by twofold serial agar dilution technique; details: 444/11, 18 h
Staphylococcus aureus [13] = experiment: Antibacterial activity against hospital-acquired methicillin-sensitive Staphylococcus aureus 449/11 after 18 hrs by twofold serial agar dilution technique; details: 449/11, 18 h
Staphylococcus aureus [14] = experiment: Antibacterial activity against hospital-acquired methicillin-sensitive Staphylococcus aureus 442/11 after 18 hrs by twofold serial agar dilution technique; details: 442/11, 18 h
Staphylococcus aureus [15] = experiment: Antibacterial activity against hospital-acquired methicillin-sensitive Staphylococcus aureus 441/11 after 18 hrs by twofold serial agar dilution technique; details: 441/11, 18 h
Staphylococcus aureus [16] = experiment: Antibacterial activity against hospital-acquired methicillin-sensitive Staphylococcus aureus 446/11 after 18 hrs by twofold serial agar dilution technique; details: 446/11, 18 h
Staphylococcus aureus [17] = experiment: Antibacterial activity against hospital-acquired methicillin-sensitive Staphylococcus aureus 443/11 after 18 hrs by twofold serial agar dilution technique; details: 443/11, 18 h
Staphylococcus aureus [18] = experiment: Antibacterial activity against hospital-acquired methicillin-resistant Staphylococcus aureus 452/11 after 18 hrs by twofold serial agar dilution technique; details: 452/11, 18 h
Staphylococcus aureus [19] = experiment: Antibacterial activity against hospital-acquired methicillin-resistant Staphylococcus aureus 393/10 after 18 hrs by twofold serial agar dilution technique; details: 393/10, 18 h
Staphylococcus aureus [20] = experiment: Antibacterial activity against hospital-acquired methicillin-sensitive Staphylococcus aureus 440/11 after 18 hrs by twofold serial agar dilution technique; details: 440/11, 18 h

## CC[C@@]1([C@@H]2O[C@@H]([C@H]3O[C@@](O)(CO)[C@H](C)C[C@@H]3C)C[C@@H]2C)CC[C@H]([C@]2(C)CC[C@]3(C[C@H](O)[C@@H](C)[C@@H]([C@@H](C)[C@@H](OC)[C@H](C)C(=O)O)O3)O2)O1 [MONENSIN]
Staphylococcus aureus [1]
  MIC: 2 µg/mL (≈ 2.98 µM)
Staphylococcus aureus [2]
  MIC: 2 µg/mL (≈ 2.98 µM)
Staphylococcus aureus [3]
  MIC: 4 µg/mL (≈ 5.96 µM)
Staphylococcus aureus [4]
  MIC: 4 µg/mL (≈ 5.96 µM)
Staphylococcus aureus [5]
  MIC: 2 µg/mL (≈ 2.98 µM)
Staphylococcus aureus [6]
  MIC: 2 µg/mL (≈ 2.98 µM)
Staphylococcus aureus [7]
  MIC: 2 µg/mL (≈ 2.98 µM)
Staphylococcus aureus [8]
  MIC: 2 µg/mL (≈ 2.98 µM)
Staphylococcus aureus [9]
  MIC: 2 µg/mL (≈ 2.98 µM)
Staphylococcus aureus [10]
  MIC: 2 µg/mL (≈ 2.98 µM)
Staphylococcus aureus [11]
  MIC: 2 µg/mL (≈ 2.98 µM)
Staphylococcus aureus [12]
  MIC: 4 µg/mL (≈ 5.96 µM)
Staphylococcus aureus [13]
  MIC: 2 µg/mL (≈ 2.98 µM)
Staphylococcus aureus [14]
  MIC: 2 µg/mL (≈ 2.98 µM)
Staphylococcus aureus [15]
  MIC: 4 µg/mL (≈ 5.96 µM)
Staphylococcus aureus [16]
  MIC: 2 µg/mL (≈ 2.98 µM)
Staphylococcus aureus [17]
  MIC: 4 µg/mL (≈ 5.96 µM)
Staphylococcus aureus [18]
  MIC: 2 µg/mL (≈ 2.98 µM)
Staphylococcus aureus [19]
  MIC: 4 µg/mL (≈ 5.96 µM)
Staphylococcus aureus [20]
  MIC: 2 µg/mL (≈ 2.98 µM)
